# According to US12336981B2, “Compounds and compositions for the inhibition of NAMPT” (Valo Health, Inc., priority 2010, dated 2025):
# Read-outs that look alike come from different tables or passages of the source.
# Columns and labels:
# NAMPT = molecular target: T1, NAMPT (Homo sapiens, UniProt P43490); assay: Biochemical inhibition assay: NAMPT enzymatic reaction, NMN quantified by mass spectrometry; settings: read-out: Biochem IC50
# T1 construct: His tag; host or cells: E. coli
# In short: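 Inhibition of E. coli-expressed His-tagged human NAMPT, measured as NMN formation by mass spectrometry after a 30 min room-temperature reaction containing 1 μM NAM, 100 μM PRPP and 2.5 mM ATP.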
# A2780 cells = assay: In-vitro cell proliferation assay (SRB), A2780 cells; assay type: cell-based; settings: Homo sapiens, A2780, 72 h, A2780 cells, 72 hours, read-out: A2780 IC50
# In short: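 SRB read-out: 6% TCA fix 1 h at 4° C., stain, Tris solubilize, A570. Media-only background subtracted; % inhibition from two compound concentrations.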
# T1 sequence (P43490 whole entry): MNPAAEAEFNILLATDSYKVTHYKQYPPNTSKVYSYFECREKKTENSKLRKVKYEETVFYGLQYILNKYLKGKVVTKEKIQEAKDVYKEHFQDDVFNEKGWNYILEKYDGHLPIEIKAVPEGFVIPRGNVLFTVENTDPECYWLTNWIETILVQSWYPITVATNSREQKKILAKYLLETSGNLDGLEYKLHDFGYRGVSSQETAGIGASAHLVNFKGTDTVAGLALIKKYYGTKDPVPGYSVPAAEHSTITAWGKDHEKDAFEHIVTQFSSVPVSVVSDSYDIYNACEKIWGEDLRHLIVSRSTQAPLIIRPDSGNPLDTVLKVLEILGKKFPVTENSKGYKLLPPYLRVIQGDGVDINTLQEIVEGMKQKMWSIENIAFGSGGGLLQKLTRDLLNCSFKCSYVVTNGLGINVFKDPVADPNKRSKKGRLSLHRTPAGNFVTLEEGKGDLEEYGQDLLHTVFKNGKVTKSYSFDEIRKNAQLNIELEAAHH
SMILES,IC50 (NAMPT; NAMPT enzymatic reaction),IC50 (A2780 cells; SRB assay),IC50 (NAMPT; NAMPT enzymatic assay),IC50 (A2780 cells; SRB)
"Cc1cc(F)ccc1S(=O)(=O)c1ccc(CNC(=O)c2cc3cnccc3[nH]2)cc1 [N-({4-[(4-fluoro-2-methylbenzene)sulfonyl]phenyl}methyl)-1H-pyrrolo[3,2-c]pyridine-2-carboxamide]",19 nM,27 nM,,
"CC(C)c1ccc(S(=O)(=O)c2ccc(CNC(=O)c3ccc4nccn4c3)cc2)cc1 [N-[(4-{[4-(propan-2-yl)benzene]sulfonyl}phenyl)methyl]imidazo[1,2-a]pyridine-6-carboxamide]",,,14.6 nM,6.66 nM
"CN(C)c1ncc(S(=O)(=O)c2ccc(CNC(=O)c3cc4ccncc4s3)cc2)cn1 [N-({4-[2-(dimethylamino)pyrimidine-5-sulfonyl]phenyl}methyl)thieno[2,3-c]pyridine-2-carboxamide]",,,8 nM,1.7 nM
Cc1cc(C)cc(S(=O)(=O)c2ccc(CNC(=O)c3cc4ccncc4o3)cc2)c1,16.7 nM,,,2.8 nM
COc1cc(C(F)(F)F)ccc1S(=O)(=O)c1ccc(CNC(=O)c2cnc3[nH]ncc3c2)cc1,,,120 nM,28.1 nM
O=C(NCc1ccc(S(=O)(=O)c2cccc(C(=O)N3CCOCC3)c2)cc1)c1cnc2[nH]ncc2c1,,,124 nM,100 to 1000 nM
COc1c(Cl)ccc(S(=O)(=O)c2ccc(CNC(=O)c3cc4ccncc4o3)cc2)c1Cl,17.7 nM,,,16.2 nM
COc1ccc(OC(F)(F)F)cc1S(=O)(=O)c1ccc(CNC(=O)c2ccc3nccn3c2)cc1,,,67.7 nM,14.4 nM
"COc1cccc(S(=O)(=O)c2ccc(CNC(=O)c3cnc4[nH]ncc4c3)cc2)c1OC [N-({4-[(2,3-dimethoxybenzene)sulfonyl]phenyl}methyl)-1H-pyrazolo[3,4-b]pyridine-5-carboxamide]",123 nM,,,83.3 nM
"O=C(NCc1ccc(S(=O)(=O)Nc2ccc(Cl)cc2OC(F)(F)F)cc1)c1cc2cnccc2[nH]1 [N-[(4-{[4-chloro-2-(trifluoromethoxy)phenyl]sulfamoyl}phenyl)methyl]-1H-pyrrolo[3,2-c]pyridine-2-carboxamide]",2 nM,2 nM,,
Cc1nc(-c2cccc(S(=O)(=O)c3ccc(CNC(=O)c4cnc5nccn5c4)cc3)c2)no1,,,2.8 nM,2.3 nM
O=C(NCc1ccc(S(=O)(=O)c2ccc(F)c(F)c2)cc1)c1cnc2[nH]ncc2c1,54.2 nM,,,28.9 nM
CC(C)NC(=O)c1cc(S(=O)(=O)c2ccc(CNC(=O)c3cc4ccncc4s3)cc2)ccc1F,,,21.3 nM,6.8 nM
"COc1ccc(S(=O)(=O)c2ccc(CNC(=O)c3cc4cnccc4[nH]3)cc2)cc1C [N-({4-[(4-methoxy-3-methylbenzene)sulfonyl]phenyl}methyl)-1H-pyrrolo[3,2-c]pyridine-2-carboxamide]",10 nM,2 nM,,
"O=C(NCc1ccc(S(=O)(=O)Nc2ccccc2CO)cc1)c1cc2cnccc2[nH]1 [N-[(4-{[2-(hydroxymethyl)phenyl]sulfamoyl}phenyl)methyl]-1H-pyrrolo[3,2-c]pyridine-2-carboxamide]",30 nM,6 nM,,
O=C(COc1cccnc1)Nc1ccc(S(=O)(=O)N2CCCCC2)cc1 [N-[4-(piperidine-1-sulfonyl)phenyl]-2-(pyridin-3-yloxy)acetamide],1.1 nM,6.6 nM,,
O=C(NCc1ccc(S(=O)(=O)c2ccc(C(F)(F)F)cc2C(F)(F)F)cc1)c1cnc2nccn2c1,,,18.8 nM,96.4 nM
"Cc1ccc(C)c(S(=O)(=O)c2ccc(CNC(=O)c3cc4cnccc4[nH]3)cc2)c1 [N-({4-[(2,5-dimethylbenzene)sulfonyl]phenyl}methyl)-1H-pyrrolo[3,2-c]pyridine-2-carboxamide]",11 nM,14 nM,,
O=C(NCc1ccc(S(=O)(=O)c2ccccc2)cc1)c1ccc2ncncc2c1 [N-{[4-(benzenesulfonyl)phenyl]methyl}quinazoline-6-carboxamide],16100 nM,21300 nM,,
